Reference: patent publication US20120219615A1, “Therapeutic Use of a TLR Agonist and Combination Therapy” (The Trustees of the University of Pennsylvania, priority 2010, published 2012)
pEC50: −log10 of the molar value.

Key:
TLR7 [1] = target: T1, TLR7 (Homo sapiens, UniProt Q9NYK1); test: HEK293 cells transfected with TLR7 and NF-κB driven reporter gene; format: cell-based; settings: HEK293 transfectants
T1 construct: expressed in transfected cells; host or cells: HEK293
T1 sequence (Q9NYK1 27-1049): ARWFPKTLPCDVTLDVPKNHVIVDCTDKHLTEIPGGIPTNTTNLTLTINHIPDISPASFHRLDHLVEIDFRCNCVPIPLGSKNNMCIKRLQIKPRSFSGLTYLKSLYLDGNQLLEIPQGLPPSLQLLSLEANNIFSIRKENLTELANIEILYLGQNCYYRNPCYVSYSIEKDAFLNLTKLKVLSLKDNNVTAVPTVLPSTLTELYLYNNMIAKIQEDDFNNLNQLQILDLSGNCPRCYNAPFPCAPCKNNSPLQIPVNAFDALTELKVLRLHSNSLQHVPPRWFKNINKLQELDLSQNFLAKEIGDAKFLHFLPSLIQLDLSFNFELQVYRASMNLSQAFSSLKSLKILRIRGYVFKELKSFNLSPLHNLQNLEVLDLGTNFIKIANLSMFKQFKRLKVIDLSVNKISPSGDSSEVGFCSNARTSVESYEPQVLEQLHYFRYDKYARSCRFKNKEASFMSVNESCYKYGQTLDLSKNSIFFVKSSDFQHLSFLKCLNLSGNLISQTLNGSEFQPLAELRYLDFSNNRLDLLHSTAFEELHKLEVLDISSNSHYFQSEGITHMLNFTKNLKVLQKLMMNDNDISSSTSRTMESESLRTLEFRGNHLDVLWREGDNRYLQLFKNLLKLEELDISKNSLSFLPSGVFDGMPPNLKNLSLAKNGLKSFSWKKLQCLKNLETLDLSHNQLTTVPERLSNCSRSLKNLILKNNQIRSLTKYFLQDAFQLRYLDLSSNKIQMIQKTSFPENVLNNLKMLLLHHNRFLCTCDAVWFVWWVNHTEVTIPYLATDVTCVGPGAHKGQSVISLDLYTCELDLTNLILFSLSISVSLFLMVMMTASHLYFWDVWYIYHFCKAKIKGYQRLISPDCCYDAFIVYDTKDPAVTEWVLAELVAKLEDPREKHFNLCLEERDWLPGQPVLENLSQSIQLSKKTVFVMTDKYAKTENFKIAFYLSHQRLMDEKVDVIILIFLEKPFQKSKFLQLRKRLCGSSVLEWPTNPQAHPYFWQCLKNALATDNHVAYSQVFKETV
Procedure: (§1) The half-maximal effective concentration (EC50) for VTX-2337 activation of TLR8 and TLR7 was assessed in peripheral blood mononuclear cells (PBMCs) from 15 healthy donors and also in HEK293 cells transfected with TLR8 or TLR7 and an NF-κB driven reporter gene. […] Also it was observed that VTX-2337 had no activity on TLR2, TLR3, TLR4, TLR5, TLR6, or TLR9 at concentrations up to 25 μM.

TLR7 [2] = target: T1, TLR7; test: IFNα production in PBMCs (marker of TLR7 activation); format: cell-based; settings: PBMCs from 15 healthy donors
Procedure: as §1

pEC50 (TLR7 [1]): 5.70
pEC50 (TLR7 [2]): < 5.48
Compound: CCCN(CCC)C(=O)C1=Cc2ccc(-c3ccc(C(=O)N4CCCC4)cc3)cc2N=C(N)C1 [VTX-2337, 2-amino-N,N-dipropyl-8-(4-(pyrrolidine-1-carbonyl)phenyl)-3H-benzo[b]azepine-4-carboxamide]
